Assay results: US4693992A, “Bacitracin-metal-polyether antibiotic complexes” (International Minerals & Chemical Corp., priority 1985, dated 1987)

How the values were obtained:
Eimeria tenella [1] = assay: Anticoccidial activity in chickens inoculated with Eimeria tenella (Example 12); assay type: in vivo, chicken; conditions: for Cecal Bleeding / Gain/Bird Days 0-3 / Gain/Bird Days 4-10: regrouped part of Table 2
Procedure: (§1) This example describes experimental testing of complexes of this invention for anticoccidial activity. Anticoccidial activities of test compounds were determined by administering the compounds (in feed) to chickens inoculated with active oocysts of Eimeria tenella. The test compounds, which are listed in Table 1 below, included four bacitracin-metal-polyether antibiotic complexes prepared according to the procedures described above. In addition, sodium lysocellin, regular bacitracin, sodium monensin, sodium lasolocid, and unmedicated inoculated and noninoculated controls were included for comparative purposes.
(§2) The test animals were Hubbard White Mountain male chicken (broiler strain) that were 5 days old at the beginning of the test. Each experimental compound was administered in a chick starter diet (Table 2) at a level of 80 g/ton and 120 g/ton. At 7 days of age, chicks were individually weighed, banded, and started on their respective treatments. Each treatment was replicated three times with five birds per replicate for a total of 15 birds per group. The test period was 10 days.
Seventy-two hours after the initiation of medication, birds were reweighed and orally inoculated with approximately 100,000 Eimeria tenella oocysts suspended in a 1 cc dose of saline. The following criteria were then evaluated over the next seven days:
A satisfactory challenge was obtained with Eimeria tenella.

[2] = Weight gain and feed utilization efficiency in chicks, 11 days (Example 13); assay type: in vivo, chicken; parameters: key to Average Weight: average weight in grams; conditions: .00275% in rye basal diet; for Average Gain / Gain/Feed Ratio: 11 days; for Average Weight / Gain/Feed: Table 4; for Average Gain Index / Gain/Feed Ratio Index: unmedicated = 100
Procedure: (§3) This example describes experimetnal testing of complexes of the present invention as feed additives for improving weight gain or feed utilization efficiency in birds. Test animals were male meat-type chickens (Hubbard strain). Fluorescent room lights were on a 16 hours light/8 hours dark schedule. The chicks were allotted to the pens on the basis of weight classes, and chicks in the even numbered pens were wing banded. Group weights were obtained at the start and individual weights at the termination of the experiment. Chicks weighing between 55 and 65 grams were selected for the test. The test compounds were blended with a basal feed ration (shown in Table 2) at the indicated concentration. Birds fed […] and feed supplemented with zinc bacitracin (Baciferm® 50, International Minerals and Chemical Corp.) were used as controls. The test was continued for 11 days, after which individual weights, pen weight and feed consumption were recorded and analyzed.

Eimeria tenella [3] = assay: Anticoccidial activity in chickens inoculated with Eimeria tenella oocysts (Example 11); assay type: in vivo; conditions: for Incidence of Bloody Droppings / Morbidity: 4th-6th day; for Morbidity: birds affected/birds in group; for Mortality: 4th-7th day, birds dead/birds in group; for F/G Day 0-3 / F/G Day 4-10: feed per gain
Procedure: as §1, §2
Seventy-two hours after the initiation of medication, birds were reweighed and orally inoculated with approximately 100,000 Eimeria tenella oocysts suspended in a 1 cc dose of saline. The following criteria were then evaluated over the next seven days: […]
a. morbidity (4th-6th day) b. mortality (4th-7th day) c. incidence of bloody droppings (4th-6th day)

[4] = Weight gain and feed utilization in chicks, 12 days (Example 14); assay type: in vivo, chicken; conditions: .0066% in feed; for Gain/Feed Data / Gains/gram Data: 12 days; for Gain/Feed Index Relative to #1 / Gains Index Relative to #1: #1 = unmedicated; for Gain/Feed Index Relative to #2 / Gains Index Relative to #2: #2 = zinc bacitracin
Procedure: as §3
All of the bacitracin-metal-polyether antibiotic complexes tested produced statistically significant increases in gains compared to the unmedicated basal ration.
The test involving test compounds 1 and 3-14 consisted of 5 replicates of 7 chicks and those involving test compound 2 consisted of 6 replicates of 7 chicks. The tests were continued for 12 days, after which individual weight gains and feed conusumption were recorded and analyzed.

buffered rumen fluid = assay: Rumen screen, in vitro ruminal volatile fatty acid ratio (Examples 15, 16); assay type: cell-based, steer; conditions: 5 ppm, Neg. Control 1.39
Procedure: Rumen fluid was removed from a fistulated steer and strained through a cheesecloth. An equal amount of pH 7 buffer was added to strained rumen fluid. After layering occurred, the lower layer was saved and again diluted with equal amount of buffer. Ten ml. portions of buffered rumen fluid were added to fermentation vessels containing 500 mg. fresh finely ground cattle ration, 1 mg cellubiose and a test compound listed in Table 1 below at the indicated concentration. The fermentation vesels were outfitted with one-way gas valves, placed in an incubator and shaken for 24 hours at 38° C. Fermentation was stopped by addition of 1 ml mercuric chloride. The liquid was decanted and analyzed for volatile fatty acids by gas chromatography. Test results are summarized in Table 1, wherein Bac=bacitracin.
The procedures of Example 15 were repeated in all essential details with the test compounds and concentrations listed in Table 1 below, as are the results of the test.

Bacitracin-Manganese-Lysocellin Complex [Example 3]
Cecal Bleeding (Eimeria tenella [1]; 14 g/ton Lasalocid (Approx.)): Moderate
Gain/Bird Days 0-3 (Eimeria tenella [1]; 14 g/ton Lasalocid (Approx.)): 61.3
Gain/Bird Days 4-10 (Eimeria tenella [1]; 14 g/ton Lasalocid (Approx.)): 154.0
Cecal Bleeding (Eimeria tenella [1]; 36 g/ton Lasalocid (Approx.)): Slight-Moderate
Gain/Bird Days 0-3 (Eimeria tenella [1]; 36 g/ton Lasalocid (Approx.)): 61.3
Gain/Bird Days 4-10 (Eimeria tenella [1]; 36 g/ton Lasalocid (Approx.)): 202.4
Incidence of Bloody Droppings (Eimeria tenella [1]; 80 g/ton in feed): Moderate
Morbidity (Eimeria tenella [1]; 80 g/ton in feed): 10/15
Mortality (Eimeria tenella [1]; 80 g/ton in feed): 0/15
F/G Day 0-3 (Eimeria tenella [1]; 80 g/ton in feed): 1.81
Gain/Bird Grams Day 0-3 (Eimeria tenella [1]; 80 g/ton in feed): 61.3 Grams
F/G Day 4-10 (Eimeria tenella [1]; 80 g/ton in feed): 2.01
Gain/Bird Grams Day 4-10 (Eimeria tenella [1]; 80 g/ton in feed): 154.0 Grams
Morbidity (Eimeria tenella [1]; 120 g/ton in feed): 2/15
Mortality (Eimeria tenella [1]; 120 g/ton in feed): 0/15
F/G Day 0-3 (Eimeria tenella [1]; 120 g/ton in feed): 1.58
Gain/Bird Grams Day 0-3 (Eimeria tenella [1]; 120 g/ton in feed): 61.3 Grams
F/G Day 4-10 (Eimeria tenella [1]; 120 g/ton in feed): 1.74
Gain/Bird Grams Day 4-10 (Eimeria tenella [1]; 120 g/ton in feed): 202.4 Grams
anticoccidial activity (in words) (Eimeria tenella [1]; 120 grams per ton): good anticoccidial activity
Average Gain [2]: 215 g
Gain/Feed Ratio [2]: 64.6
Average Weight [2]: 274.8
Gain/Feed [2]: 64.6
Average Gain Index [2]: 104.5
Gain/Feed Ratio Index [2]: 101.3
anticoccidial activity (in words) (Eimeria tenella [3]; 80 and 120 g/ton, mild E. tenella challenge): excellent anticoccidial activity
Incidence of Bloody Droppings (Eimeria tenella [3]; 80 g/ton in feed): None
Morbidity (Eimeria tenella [3]; 80 g/ton in feed): 1/15
Mortality (Eimeria tenella [3]; 80 g/ton in feed): 0/15
Gain, Grams Day 0-3 (Eimeria tenella [3]; 80 g/ton in feed): 61.7 Grams
Gain, Grams Day 4-10 (Eimeria tenella [3]; 80 g/ton in feed): 226.6 Grams
F/G Day 0-3 (Eimeria tenella [3]; 80 g/ton in feed): 1.62
F/G Day 4-10 (Eimeria tenella [3]; 80 g/ton in feed): 1.59
Incidence of Bloody Droppings (Eimeria tenella [3]; 120 g/ton in feed): None
Morbidity (Eimeria tenella [3]; 120 g/ton in feed): 1/15
Mortality (Eimeria tenella [3]; 120 g/ton in feed): 0/15
Gain, Grams Day 0-3 (Eimeria tenella [3]; 120 g/ton in feed): 57.7 Grams
Gain, Grams Day 4-10 (Eimeria tenella [3]; 120 g/ton in feed): 231.8 Grams
F/G Day 0-3 (Eimeria tenella [3]; 120 g/ton in feed): 1.68
F/G Day 4-10 (Eimeria tenella [3]; 120 g/ton in feed): 1.61
Gain/Feed Data [4]: .588
Gains/gram Data [4]: 202.0 gram
Gain/Feed Index Relative to #1 [4]: 104.4
Gains Index Relative to #1 [4]: 109.1
Gain/Feed Index Relative to #2 [4]: 98.6
Gains Index Relative to #2 [4]: 96.4

Bacitracin-Sodium-Lysocellin Complex [Example 5]
Cecal Bleeding (Eimeria tenella [1]; 14 g/ton Lasalocid (Approx.)): Severe
Gain/Bird Days 0-3 (Eimeria tenella [1]; 14 g/ton Lasalocid (Approx.)): 59.9
Gain/Bird Days 4-10 (Eimeria tenella [1]; 14 g/ton Lasalocid (Approx.)): 147.7
anticoccidial activity (in words) (Eimeria tenella [1]; 36 (0.30 of 120) grams per ton): fair anticoccidial activity
Cecal Bleeding (Eimeria tenella [1]; 36 g/ton Lasalocid (Approx.)): Moderate
Gain/Bird Days 0-3 (Eimeria tenella [1]; 36 g/ton Lasalocid (Approx.)): 58.6
Gain/Bird Days 4-10 (Eimeria tenella [1]; 36 g/ton Lasalocid (Approx.)): 169.4
Incidence of Bloody Droppings (Eimeria tenella [1]; 80 g/ton in feed): Severe
Morbidity (Eimeria tenella [1]; 80 g/ton in feed): 11/15
Mortality (Eimeria tenella [1]; 80 g/ton in feed): 0/15
F/G Day 0-3 (Eimeria tenella [1]; 80 g/ton in feed): 1.68
Gain/Bird Grams Day 0-3 (Eimeria tenella [1]; 80 g/ton in feed): 59.9 Grams
F/G Day 4-10 (Eimeria tenella [1]; 80 g/ton in feed): 2.12
Gain/Bird Grams Day 4-10 (Eimeria tenella [1]; 80 g/ton in feed): 147.7 Grams
Cecal bleeding associated with E. tenella infections (Eimeria tenella [1]; 80 gram per ton): severe
Incidence of Bloody Droppings (Eimeria tenella [1]; 120 g/ton in feed): Moderate
Morbidity (Eimeria tenella [1]; 120 g/ton in feed): 8/15
Mortality (Eimeria tenella [1]; 120 g/ton in feed): 0/15
F/G Day 0-3 (Eimeria tenella [1]; 120 g/ton in feed): 1.65
Gain/Bird Grams Day 0-3 (Eimeria tenella [1]; 120 g/ton in feed): 58.6 Grams
F/G Day 4-10 (Eimeria tenella [1]; 120 g/ton in feed): 1.83
Gain/Bird Grams Day 4-10 (Eimeria tenella [1]; 120 g/ton in feed): 169.7 Grams
anticoccidial activity (in words) (Eimeria tenella [1]; 120 grams per ton): good anticoccidial activity
Average Gain [2]: 214 g
Gain/Feed Ratio [2]: 63.1
Average Weight [2]: 274.8
Gain/Feed [2]: 63.1
Average Gain Index [2]: 104.2
Gain/Feed Ratio Index [2]: 99.0
Morbidity (Eimeria tenella [3]; 80 g/ton in feed): 4/15
Mortality (Eimeria tenella [3]; 80 g/ton in feed): 0/15
Gain, Grams Day 0-3 (Eimeria tenella [3]; 80 g/ton in feed): 56.1 Grams
Gain, Grams Day 4-10 (Eimeria tenella [3]; 80 g/ton in feed): 219.9 Grams
F/G Day 0-3 (Eimeria tenella [3]; 80 g/ton in feed): 1.70
F/G Day 4-10 (Eimeria tenella [3]; 80 g/ton in feed): 1.62
Incidence of Bloody Droppings (Eimeria tenella [3]; 120 g/ton in feed): Moderate
Morbidity (Eimeria tenella [3]; 120 g/ton in feed): 1/15
Mortality (Eimeria tenella [3]; 120 g/ton in feed): 1/15
Gain, Grams Day 0-3 (Eimeria tenella [3]; 120 g/ton in feed): 58.8 Grams
Gain, Grams Day 4-10 (Eimeria tenella [3]; 120 g/ton in feed): 228.3 Grams
F/G Day 0-3 (Eimeria tenella [3]; 120 g/ton in feed): 1.72
F/G Day 4-10 (Eimeria tenella [3]; 120 g/ton in feed): 1.62
Gain/Feed Data [4]: .595
Gains/gram Data [4]: 212.4 gram
Gain/Feed Index Relative to #1 [4]: 105.7
Gains Index Relative to #1 [4]: 114.8
Gain/Feed Index Relative to #2 [4]: 99.8
Gains Index Relative to #2 [4]: 101.3

sodium lysocellin [reference compound]
A/P Ratio (buffered rumen fluid; Example 15, 24 hours at 38° C.): 1.07
A/P Ratio (buffered rumen fluid; Example 16): 1.07
